As usually defined, the IC50 is the midpoint of a concentration-inhibition curve. A low value points to greater potency.

Consider 22 compounds from BindingDB's records for patent US20250066349 (Prothena Biosciences, 2025).

Bounds are passed on as bounds.

This assay addresses Dual specificity tyrosine-phosphorylation-regulated kinase 1A (Homo sapiens, UniProt Q13627). The assay can be described thus: DYRK1A Inhibition Assay. The method, then:
1. Add 5 μL enzyme & substrate mixture to each well in Column 2-23 and A24-H24 wells of the 384-well assay plate;2. Add 5 μL 0% Phosphorylation control to A1-H1 and I24-P24 wells of the assay plate;3. Add 5 μL 100% Phosphorylation control to I1-P1 wells of the assay plate;4. Spin the assay plate (1000 rpm, 1 minute @23° C.);5. Incubate enzyme with compounds for 15 minutes at 23° C.;6. Add 5 μL ATP solution to each well of the assay plate;7. Spin the plate (1000 rpm, 1 minute @23° C.);8. Incubate the assay plate for 90 minutes at 23° C.;9. Add 10 μL Development reagent A to each well of the assay plate;10. Centrifuge the plate at 1000 rpm about 15 seconds and seal a film over assay plate. Incubate the assay plate for 30 minutes at 23° C.11. Read assay plates on Envision (see Tables A-D).
With `Cn1cc(-c2ccc3cnc4[nH]cc(C5CCC5)c4c3c2)cn1` [US20250066349, Compound I.1], the half-maximal inhibitory concentration (IC50) is under 10 nM.

In the case of `COC(=O)c1ccc2c(cnc3[nH]cc(-c4ccc(F)cc4)c32)c1` [US20250066349, Compound I.4], the IC50 was over 1000 nM.

Regarding `Cc1ncc(-c2ccc3cnc4[nH]cc(C5CCCCC5)c4c3c2)s1` [US20250066349, Compound I.6], the IC50 is under 10 nM.

`COC1CC=C(c2n[nH]c3ncc4ccc(-c5cnn(C)c5)cc4c23)CC1` (configuration not stated) [US20250066349, Compound I.8] displayed an IC50 of under 10 nM.

The compound `COC1CCC(c2c[nH]c3ncc4ccc(-c5cnn(C)c5)cc4c23)CC1` (configuration not stated) [US20250066349, Compound I.13] displayed an IC50 of under 10 nM.

For the compound `Cn1cc(-c2ccc3cnc4[nH]cc(C5CCC(O)CC5)c4c3c2)cn1` (configuration not stated) [US20250066349, Compound I.14], the IC50 is under 10 nM.

On to `Cn1cc(-c2ccc3cnc4[nH]cc(C5CC(O)C5)c4c3c2)cn1` (configuration not stated) [US20250066349, Compound I.18], for which the IC50 was under 10 nM.

In the case of `COC1CC(c2c[nH]c3ncc4ccc(-c5cnn(C)c5)cc4c23)C1` (configuration not stated) [US20250066349, Compound I.23], the IC50 is under 10 nM.

As to `Cn1cc(-c2ccc3cnc4[nH]cc(C5CCC(C(=O)O)CC5)c4c3c2)cn1` (configuration not stated) [US20250066349, Compound I.24], the IC50 was under 10 nM.

The compound `Cc1c(C2CCOCC2)[nH]c2ncc3ccc(-c4cnn(C)c4)cc3c12` [US20250066349, Compound I.51] had an IC50 of under 10 nM.

`Cn1cc(-c2ccc3c(-c4ccc5cnn(C)c5c4)cnn3c2)ccc1=O` [US20250066349, Compound II.1] registered an IC50 of under 10 nM.

The compound `Cn1cc(-c2ccc3c(-c4ccc5cnsc5c4)cnn3c2)ccc1=O` [US20250066349, Compound II.2] showed an IC50 of under 10 nM.

As to `CN1CCC(C(=O)Nc2ncc(-c3ccc4c(c3)COC4=O)s2)CC1` [US20250066349, Compound III.2], the concentration for half-maximal inhibition (IC50) was under 50 nM.

`CN1CCC(C(=O)Nc2ncc(-c3ccc4oncc4c3)s2)CC1` [US20250066349, Compound III.4]: the IC50 was under 50 nM.

As for `CC(=O)N1CCc2c(cnc3[nH]cc(C4CCC4)c23)C1` [US20250066349, Compound IV.1], the IC50 was under 500 nM.

The compound `CC(=O)N1CCc2c(cnc3[nH]cc(-c4ccc5c(c4)OCO5)c23)C1` [US20250066349, Compound IV.6] yielded an IC50 of under 500 nM.

For the compound `Cn1ncc2c3ccc(C#N)cc3ncc21` [US20250066349, Compound IV.14], the IC50 is under 500 nM.

The compound `CN(C)CCOc1ccc2c(c1)[nH]c(=O)c1cc(-c3ccncc3)cn12` [US20250066349, Compound IV.18] yielded an IC50 of under 500 nM.

`N#Cc1ccc2c(c1)ncc1c(Oc3cccc(Cl)c3)cncc12` [US20250066349, Compound IV.21] yielded an IC50 of over 5000 nM.

`CN1CCc2c([nH]c(=O)c3cc(C4CCOCC4)ccc23)C1` [US20250066349, Compound IV.22] registered an IC50 of over 5000 nM.

The compound `CN1CCc2c([nH]c(=O)c3cc(C4=CCOCC4)ccc23)C1` [US20250066349, Compound IV.23] registered an IC50 of over 5000 nM.

On to `COc1ccc(-c2ccc3c4c([nH]c(=O)c3c2)CN(C)CC4)cc1OC` [US20250066349, Compound IV.24], for which the IC50 was over 5000 nM.
